Measurements taken from PubChem BioAssay AID2060611 (Molecular Pharmacology Branch, DTP, NCI, 2025).
“And” between values parts separate entries of the source, which are not always exact repeats. Equal values may be shown once. Values belong to the compound of their own block, whether it stands above or below them.

Test system: 628569-122-R-J1-PDC complex spheroid viability
Experiment: Anticancer human tumor 628569-122-R-J1-PDC patient-derived head and neck squamous carcinoma cell line growth inhibition [CLK]
Details: for viability, T/C: stronger effect = lower value
Method in brief: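 Multi-cell-type spheroids combined patient-derived tumor cells with HUVEC endothelial cells and human mesenchymal stem cells. Paired agents were dosed in half-log steps down from about clinical Cmax, or from 10 microM where Cmax was unknown.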
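Note: spheroids exposed to agents for seven days before readout.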
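Throughout, for viability, T/C: 100% = DMSO vehicle control viability.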

IC50 (curve of compound): < 31.6 nM
Structure (SMILES): CC(=O)O[C@H]1C(=O)[C@@]2(C)[C@H]([C@H](OC(=O)c3ccccc3)[C@]3(O)C[C@H](OC(=O)[C@H](O)[C@@H](NC(=O)c4ccccc4)c4ccccc4)C(C)=C1C3(C)C)[C@]1(OC(C)=O)CO[C@@H]1C[C@@H]2O
viability, T/C (compound 0.0316 µM): 29.1% and 29.6%
viability, T/C (compound 0.1 µM): 30.8% and 26.9%
viability, T/C (compound 0.316 µM): 27.4% and 26.9%
viability, T/C (compound 1 µM): 27.5% and 24.6%
viability, T/C (compound 3.16 µM): 27.2% and 33.9%
viability, T/C (compound 10 µM): 44.5% and 41.1%

IC50 (curve of compound): > 10000 nM
Structure (SMILES): CC1(C)CCC(CN2CCN(c3ccc(C(=O)NS(=O)(=O)c4ccc(NCC5CCOCC5)c([N+](=O)[O-])c4)c(Oc4cnc5[nH]ccc5c4)c3)CC2)=C(c2ccc(Cl)cc2)C1
viability, T/C (compound 0.0316 µM): 96.8% and 88.2%
viability, T/C (compound 0.1 µM): 97.5% and 99.5%
viability, T/C (compound 0.316 µM): 86.7% and 95.1%
viability, T/C (compound 1 µM): 101% and 91.4%
viability, T/C (compound 3.16 µM): 101% and 90.6%
viability, T/C (compound 10 µM): 80.5% and 73.1%

IC50 (curve of first compound, second compound 0.0316 µM): > 300 nM
IC50 (curve of first compound, second compound 0.1 µM): 26.9 nM
IC50 (curve of first compound, second compound 0.316 µM): 17.9 nM
IC50 (curve of first compound, second compound 1 µM): < 0.949 nM
IC50 (curve of first compound, second compound 3.16 µM): < 0.949 nM
IC50 (curve of first compound, second compound 10 µM): < 0.949 nM
Structure (SMILES): C=CC(=O)Nc1cc(Nc2nccc(-c3cn(C)c4ccccc34)n2)c(OC)cc1N(C)CCN(C)C + CNC(=O)c1ccc(Nc2nc(OC3CCCC3)c3c(-c4ccc5nc(C)oc5c4)c[nH]c3n2)c(OC)c1
viability, T/C (second compound 0.0316 µM, first compound 0.000949 µM): 81.8%
viability, T/C (second compound 0.0316 µM, first compound 0.003 µM): 98.1%
viability, T/C (second compound 0.0316 µM, first compound 0.00949 µM): 86.1%
viability, T/C (second compound 0.0316 µM, first compound 0.03 µM): 84.2%
viability, T/C (second compound 0.0316 µM, first compound 0.0949 µM): 68.1%
viability, T/C (second compound 0.0316 µM, first compound 0.3 µM): 53.7%
viability, T/C (second compound 0.1 µM, first compound 0.000949 µM): 63%
viability, T/C (second compound 0.1 µM, first compound 0.003 µM): 56.2%
viability, T/C (second compound 0.1 µM, first compound 0.00949 µM): 52.4%
viability, T/C (second compound 0.1 µM, first compound 0.03 µM): 49%
viability, T/C (second compound 0.1 µM, first compound 0.0949 µM): 49.6%
viability, T/C (second compound 0.1 µM, first compound 0.3 µM): 37.6%
viability, T/C (second compound 0.316 µM, first compound 0.000949 µM): 50.7%
viability, T/C (second compound 0.316 µM, first compound 0.003 µM): 55.7%
viability, T/C (second compound 0.316 µM, first compound 0.00949 µM): 49%
viability, T/C (second compound 0.316 µM, first compound 0.03 µM): 49.5%
viability, T/C (second compound 0.316 µM, first compound 0.0949 µM): 41.5%
viability, T/C (second compound 0.316 µM, first compound 0.3 µM): 23.9%
viability, T/C (second compound 1 µM, first compound 0.000949 µM): 49.1%
viability, T/C (second compound 1 µM, first compound 0.003 µM): 51.4%
viability, T/C (second compound 1 µM, first compound 0.00949 µM): 38.8%
viability, T/C (second compound 1 µM, first compound 0.03 µM): 42.1%
viability, T/C (second compound 1 µM, first compound 0.0949 µM): 36.6%
viability, T/C (second compound 1 µM, first compound 0.3 µM): 18.9%
viability, T/C (second compound 3.16 µM, first compound 0.000949 µM): 43.1%
viability, T/C (second compound 3.16 µM, first compound 0.003 µM): 48.9%
viability, T/C (second compound 3.16 µM, first compound 0.00949 µM): 39.3%
viability, T/C (second compound 3.16 µM, first compound 0.03 µM): 44.2%
viability, T/C (second compound 3.16 µM, first compound 0.0949 µM): 23.7%
viability, T/C (second compound 3.16 µM, first compound 0.3 µM): 13.7%
viability, T/C (second compound 10 µM, first compound 0.000949 µM): 46.5%
viability, T/C (second compound 10 µM, first compound 0.003 µM): 40.6%
viability, T/C (second compound 10 µM, first compound 0.00949 µM): 46.8%
viability, T/C (second compound 10 µM, first compound 0.03 µM): 45%
viability, T/C (second compound 10 µM, first compound 0.0949 µM): 25.8%
viability, T/C (second compound 10 µM, first compound 0.3 µM): 12%
